Assay results reported in PubChem BioAssay AID248 (DTP/NCI, 2004).
Several values for one entry are separate records, joined by “and”; a condition that tells them apart may be missing. Equal entries are not always repeated. Inconclusive results and toxic doses are left out. No stated cut-off is given here; in the data, active means T/C of 150% or more; inactive means T/C below 125%.

Tested on: L1210 leukemia ip in BDF1 mice, survival T/C
Test: NCI In Vivo Anticancer Drug Screen. Data for tumor model L1210 Leukemia (intraperitoneal) in B6D2F1 (BDF1) mice
Conditions: endpoint: mean survival time, higher = longer survival
In short: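 Transplantable tumor model; survival measured in treated vs vehicle control mice. Value = treated/control.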

[1] = dose: 100.0 mg/kg/injection, schedule: Q01DX001 (ip), vehicle: Klucel (hydroxypropylcellulose) (HPC)
[2] = dose: 200.0 mg/kg/injection, schedule: Q01DX001 (ip), vehicle: Klucel (hydroxypropylcellulose) (HPC)
[3] = dose: 400.0 mg/kg/injection, schedule: Q01DX001 (ip), vehicle: Klucel (hydroxypropylcellulose) (HPC)
[4] = dose: 100.0 mg/kg/injection, schedule: Q01DX001 (ip), vehicle: saline
[5] = dose: 200.0 mg/kg/injection, schedule: Q01DX001 (ip), vehicle: saline
[6] = dose: 400.0 mg/kg/injection, schedule: Q01DX001 (ip), vehicle: saline
[7] = dose: 50.0 mg/kg/injection, schedule: Q01DX009 (ip), vehicle: saline with Tween-80
[8] = dose: 100.0 mg/kg/injection, schedule: Q01DX001 (ip), vehicle: saline with Tween-80
[9] = dose: 100.0 mg/kg/injection, schedule: Q01DX009 (ip), vehicle: saline with Tween-80
[10] = dose: 100.0 mg/kg/injection, schedule: Q04DX003 (ip), vehicle: saline with Tween-80
[11] = dose: 200.0 mg/kg/injection, schedule: Q01DX009 (ip), vehicle: saline with Tween-80
[12] = dose: 200.0 mg/kg/injection, schedule: Q04DX003 (ip), vehicle: saline with Tween-80
[13] = dose: 200.0 mg/kg/injection, schedule: Q04DX003 (ip), vehicle: saline
[14] = dose: 100.0 mg/kg/injection, schedule: Q04DX003 (ip), vehicle: Klucel (hydroxypropylcellulose) (HPC)
[15] = dose: 200.0 mg/kg/injection, schedule: Q04DX003 (ip), vehicle: Klucel (hydroxypropylcellulose) (HPC)
[16] = dose: 400.0 mg/kg/injection, schedule: Q04DX003 (ip), vehicle: Klucel (hydroxypropylcellulose) (HPC)
[17] = dose: 75.0 mg/kg/injection, schedule: Q01DX001 (ip), vehicle: other
[18] = dose: 150.0 mg/kg/injection, schedule: Q01DX001 (ip), vehicle: other
[19] = dose: 400.0 mg/kg/injection, schedule: Q01DX009 (ip), vehicle: saline with Tween-80
[20] = dose: 400.0 mg/kg/injection, schedule: Q04DX003 (ip), vehicle: saline with Tween-80
[21] = dose: 50.0 mg/kg/injection, schedule: Q01DX001 (ip), vehicle: saline

Measured: T/C

CC(=O)c1ccc(C(=O)NCCCc2c(-c3ccccc3)nc(N)[nH]c2=O)cc1
inactive: [1] 94 % of control | [2] 94 % of control | [3] 96 % of control

CCCOC(=O)CCOC
inactive: [4] 94 % of control | [5] 103 % of control | [6] 103 % of control

CC(C)=CC(=O)c1ccccc1
inactive: dose: 100.0 mg/kg/injection, schedule: Q01DX001 (ip), vehicle: acetone 100 % of control | dose: 200.0 mg/kg/injection, schedule: Q01DX001 (ip), vehicle: acetone 94 % of control | dose: 400.0 mg/kg/injection, schedule: Q01DX001 (ip), vehicle: acetone 103 % of control

CCCSc1nccc2n[nH]nc12
inactive: [7] 95 % of control | dose: 50.0 mg/kg/injection, schedule: Q04DX003 (ip), vehicle: saline with Tween-80 98 % of control | [8] 90 % of control | [9] 93 % of control | [10] 96 % of control | dose: 200.0 mg/kg/injection, schedule: Q01DX001 (ip), vehicle: saline with Tween-80 95 % of control | [11] 95 % of control | [12] 100 % of control

CC(=O)[S][Pb]([c]1ccccc1)([c]1ccccc1)[c]1ccccc1
inactive: dose: 1.0 mg/kg/injection, schedule: Q01DX009 (ip), vehicle: saline 93 % of control | dose: 2.0 mg/kg/injection, schedule: Q01DX009 (ip), vehicle: saline 93 % of control | dose: 4.0 mg/kg/injection, schedule: Q01DX009 (ip), vehicle: saline 95 % of control and 100 % of control | dose: 5.9 mg/kg/injection, schedule: Q01DX009 (ip), vehicle: saline 86 % of control

CC/C(=C(\CC)c1ccc(OC)cc1)c1ccc(OC)cc1
inactive: [7] 100 % of control | [9] 89 % of control | [11] 89 % of control | [13] 87 % of control

CC(=O)Nc1cccc2cc(O)ccc12
inactive: dose: 100.0 mg/kg/injection, schedule: Q04DX003 (ip), vehicle: gum acacia 98 % of control | dose: 200.0 mg/kg/injection, schedule: Q04DX003 (ip), vehicle: gum acacia 100 % of control | dose: 400.0 mg/kg/injection, schedule: Q04DX003 (ip), vehicle: gum acacia 88 % of control

CC(=O)C(CCC#N)(CCC#N)c1ccccc1
inactive: dose: 50.0 mg/kg/injection, schedule: Q04DX002 (ip), vehicle: Klucel (hydroxypropylcellulose) (HPC) 121 % of control | dose: 100.0 mg/kg/injection, schedule: Q04DX002 (ip), vehicle: Klucel (hydroxypropylcellulose) (HPC) 101 % of control

O=[N+]([O-])c1cc(Cl)ccc1S(=O)(=O)O
inactive: [14] 101 % of control | [15] 93 % of control | [16] 98 % of control

CCCCC(CC)CCC(C)O (stereo not drawn)
inactive: [7] 96 % of control | [9] 94 % of control | [10] 108 % of control | [12] 95 % of control

O=C(O)C1CCSS1 (stereo not drawn)
inactive: dose: 50.0 mg/kg/injection, schedule: Q01DX009 (ip), vehicle: saline 89 % of control | dose: 100.0 mg/kg/injection, schedule: Q01DX009 (ip), vehicle: saline 92 % of control | dose: 100.0 mg/kg/injection, schedule: Q04DX003 (ip), vehicle: saline 101 % of control | [13] 104 % of control

O=C(O)/C(S)=C/c1ccc2c(c1)OCO2
inactive: dose: 100.0 mg/kg/injection, schedule: Q01DX001 (ip), vehicle: carboxymethylcellulose (CMC) 100 % of control | dose: 200.0 mg/kg/injection, schedule: Q01DX001 (ip), vehicle: carboxymethylcellulose (CMC) 102 % of control | dose: 400.0 mg/kg/injection, schedule: Q01DX001 (ip), vehicle: carboxymethylcellulose (CMC) 102 % of control

CC(=O)c1c(O)cc(C)[nH]c1=O
inactive: [4] 86 % of control | [5] 89 % of control | [6] 86 % of control

COc1cc2c(c(OC)c1OC)-c1ccc(O)c(=O)cc1[C@@H](NC(C)=O)CC2
inactive: [17] 90 % of control | [18] 119 % of control

CCCCCCCCCCCCCCCCN1CNC(=O)NC1
inactive: dose: 100.0 mg/kg/injection, schedule: Q01DX001 (ip), vehicle: other 98 % of control | dose: 200.0 mg/kg/injection, schedule: Q01DX001 (ip), vehicle: other 98 % of control | dose: 400.0 mg/kg/injection, schedule: Q01DX001 (ip), vehicle: other 95 % of control

O=[N+]([O-])c1ccc(CBr)cc1
inactive: dose: 12.5 mg/kg/injection, schedule: Q01DX009 (ip), vehicle: other 95 % of control | dose: 25.0 mg/kg/injection, schedule: Q01DX009 (ip), vehicle: other 113 % of control | dose: 50.0 mg/kg/injection, schedule: Q01DX009 (ip), vehicle: other 104 % of control

CC(C)(c1ccc(OCC2CO2)cc1)c1ccc(OCC2CO2)cc1 (stereo not drawn)
inactive: [4] 101 % of control | [5] 109 % of control | [6] 96 % of control

CC(C)(C)Cc1cc(O)c2c(c1O)C(=O)c1ccccc1C2=O
inactive: [9] 98 % of control | [10] 97 % of control | [11] 98 % of control | [12] 97 % of control | [19] 96 % of control | [20] 92 % of control

CCOc1ccc(C(=O)OCCCl)cc1
inactive: [10] 110 % of control | [12] 109 % of control | [20] 109 % of control

COC(=O)C(Cc1ccccc1)NC(=O)/C=C/N(CCCl)CCCl (stereo not drawn)
inactive: dose: 10.0 mg/kg/injection, schedule: Q01DX Z (ip), vehicle: other 97 % of control | dose: 20.0 mg/kg/injection, schedule: Q01DX Z (ip), vehicle: other 96 % of control | dose: 40.0 mg/kg/injection, schedule: Q01DX Z (ip), vehicle: other 89 % of control | dose: 80.0 mg/kg/injection, schedule: Q01DX Z (ip), vehicle: other 102 % of control

O=c1[nH][nH]c(Cc2ccccc2)c1-c1ccccc1
inactive: [14] 102 % of control | [15] 98 % of control | [16] 101 % of control

O=C(C(=Nc1ccccc1)c1ccccc1)c1ccccc1
inactive: [10] 96 % of control | [12] 94 % of control

CC(=O)OC1C(=O)C(C)(C)CSCC1(C)C (stereo not drawn)
inactive: dose: 100.0 mg/kg/injection, schedule: Q01DX009 (ip), vehicle: Klucel (hydroxypropylcellulose) (HPC) 103 % of control | dose: 200.0 mg/kg/injection, schedule: Q01DX009 (ip), vehicle: Klucel (hydroxypropylcellulose) (HPC) 103 % of control | dose: 400.0 mg/kg/injection, schedule: Q01DX009 (ip), vehicle: Klucel (hydroxypropylcellulose) (HPC) 105 % of control

CC(C)C(C)/C=C\C(C)C1CCC2=C3CCC4CC(O)CCC4(C)C3CCC21C (stereo not drawn)
inactive: [1] 97 % of control | [2] 97 % of control | [3] 93 % of control

Cc1ccc(Nc2nc(N)nc(N)c2C=O)cc1C
inactive: [21] 109 % of control | [4] 109 % of control | [5] 100 % of control | [6] 97 % of control

CCOc1nc(N)nc2n[nH]nc12
inactive: dose: 82.0 mg/kg/injection, schedule: Q01DX Z (ip), vehicle: carboxymethylcellulose (CMC) 93 % of control | dose: 175.0 mg/kg/injection, schedule: Q01DX Z (ip), vehicle: carboxymethylcellulose (CMC) 112 % of control | dose: 262.0 mg/kg/injection, schedule: Q01DX Z (ip), vehicle: carboxymethylcellulose (CMC) 95 % of control

CCC(CC)NC(CC)COC(=O)c1ccc(N)cc1 (stereo not drawn)
inactive: [17] 97 % of control | [18] 107 % of control

COC1(OC)C2(Cl)CC(c3ccc(Cl)cc3)C1(Cl)C(Cl)=C2Cl (stereo not drawn)
inactive: [9] 110 % of control | [14] 98 % of control | [11] 101 % of control | [15] 105 % of control | [19] 100 % of control | [16] 104 % of control

CC1(C)N=C(N)N=C(N)N1c1cccc(OCCCOc2cccc(N)c2)c1
inactive: dose: 25.0 mg/kg/injection, schedule: Q01DX001 (ip), vehicle: saline 97 % of control | [21] 98 % of control

CCCCCCCCCCNC(C1=C(O)c2ccccc2C(=O)C1=O)c1ccccc1 (stereo not drawn)
inactive: dose: 25.0 mg/kg/injection, schedule: Q01DX001 (ip), vehicle: saline with Tween-80 89 % of control | [8] 89 % of control | dose: 400.0 mg/kg/injection, schedule: Q01DX001 (ip), vehicle: saline with Tween-80 86 % of control

NOc1ccc([N+](=O)[O-])cc1[N+](=O)[O-]
inactive: [10] 108 % of control
